Source: patent US20210002725A1, “METHODS FOR THE DIAGNOSIS OF METABOLIC DISORDERS USING EPIMETABOLIC SHIFTERS, MULTIDIMENSIONAL INTRACELLULAR MOLECULES, OR ENVIRONMENTAL INFLUENCES” (Berg LLC, priority 2009, published 2021)

Legend:
[1] = system: HepG2 (liver cancer) cells; experiment: Real-time PCR Apoptosis Array; assay type: cell-based
IDH1 = experiment: Western blot of Isocitrate Dehydrogenase-1 levels in cells treated with Coenzyme Q10; assay type: cell-based, human
Method: The whole cell pellets were resuspended one at a time in 1 mL of C7 buffer and transferred to labeled 15 mL tubes. The samples were then sonicated in the cold room on ice using 6 sonic pulses with the setting at #14. The samples were spun for a short time to 2500 g after sonication and the samples transferred to 2 ml tubes. The pH was verified of each sample (pH should be 9.0) using the foam remaining in the […] sample tubes.
Alkylation and reduction of samples was performed for each sample by adding 10 ul of 1M acrylamide, 25 ul of tributylphoshene and incubation for 90 mins with intermittent mixing. After incubation, 10 ul of 1M DTT was added and the tubes were spun at 20,000 g at 20 deg C. for 10 minutes and transferred the supernatant to labeled Amicon Ultra centrifugal filter units with a 10 k cut off (Millipore catalog #UFC 801024). The samples were spun for 15 minutes at 2500 g in 2 intervals. The conductivity was measured for Chaps alone as well as the samples using a conductivity meter. If the conductivity of samples is high, then 1 ml of chaps was added for buffer exchange and spun again at 2500 g until the volume was down to 250 ul. When the conductivity was 200 or less the samples were spun in 5 min intervals at 2500 g until the volume of the supernatant was between 150-100 ul. The sample supernatants were transferred to eppendorf tubes and Bradford assay was performed using BSA as standard.
The samples were processed as per standard protocols as described above and the amount of protein in each of the samples was determined by Bradford assay. Sample volumes equivalent to 10 ug of protein were prepared as shown below with Lamelli Loading dye (LDS) and MilliQ water were run on a 4-12% Bis-Tris Novex NuPAGE gel (Invitrogen, cat #NP0323Box)
The gels were run for 50 minutes using 1×MOPS buffer using a NOVEX Xcell Surelock system at 200 V. The gels were then transferred for 1 hour using a NOVEX Xcell Surelock wet transfer protocol at 30 V. The blots were stained with Simply Blue Safestain from Invitrogen (LC6065).
After transfer each of the blots was placed in between 2 Whatman Filter papers and dried for 15-20 minutes. After drying the blots were labeled with the date, the type of samples and either blot 1 or blot 2 using a HB pencil. The molecular weight markers were outlined with the pencil and with single lines for the blue and a doublet for the colored markers. The blots were activated with methanol for 5 seconds, washed with water for 5 minutes, and TBST for 15 minutes. The blots were blocked for 1 hour with 5% blocking reagent in TBS-T at room temperature and then washed 3 times with TBS-T (1×-15′; 2×5′ each). Blot 1 was probed with the primary antibody for IDH1 (Cell Signaling #3997) in TBST with 5% BSA (at 1:1000 dilutions) and blot 2 with the rabbit polyclonal antibody for ATP Citrate Lyase in 5% BSA (Cell Signaling #4332) at 1:1000 dilution by incubation overnight at 4 deg C. with shaking. After the overnight incubation with primary antibodies, the blots were washed 3 times with TBS-T (1×-15′; 2×5′ each) and probed with the secondary antibody (antirabbit; 1:10,000 dilution) for 1 hon the orbital tilting shaker at room temperature. After 1 h of incubation with secondary antibodies, the blots were washed 3 times with TBS-T (1×-15′; 2×5′ each) and then incubated with ECF reagent for 5 mins and then each blot scanned with 5100 Fuji Laser scanner at 25 uM resolution, 16 bit, green laser, at 400V and at 500 V.
The samples were processed and run on a 4-12% Bis-Tris Novex NuPAGE gel as described above. The gels were run, transferred and stained essentially as described above.
After transfer the blot was dried for 15-20 minutes, activated with methanol for 5 seconds, washed with water for 5 minutes, and TBST for 15 minutes. The blot was blocked for 1 hour with 5% blocking reagent in TBS-T at room temperature and then washed 3 times with TBS-T (1×-15′; 2×5′ each). […]

[2] = system: Succinate Dehydrogenase B (SDHB); experiment: Western blot of Succinate Dehydrogenase subunit B in mitochondrial preparations; assay type: cell-based; conditions: mitochondrial preparations of cancer cells
Method: The above blots were stripped by incubating for 30 minutes with methanol, followed by two 10 minute washes with TBS-T, then 30 minutes of incubation with Stripping buffer at 50 deg C., and followed by two washes with 100 ml or more of TBS-T for 30′ each. The blots were scanned in laser scanner to check for complete stripping. The blots were activated with methanol for 5 seconds, washed with water for 5 minutes, and TBST for 15 minutes. The blots were blocked for 1 hour with 5% blocking reagent in TBS-T at room temperature and then washed 3 times with TBS-T (1×-15′; 2×5′ each) and probed with the primary antibody for PKM2, SDHB or SDHC in 5% BSA in TBS-T by incubation overnight at 4 deg C. with gentle shaking. The primary antibody for SDHC (ABNOVA H00006391-M02; antimouse) was at 1:500 dilution. The primary antibody for SDHB was from Abcam ab4714-200; antimouse; at 1:1000 dilution. The primary antibody for Pyruvate Kinase M2 (PKM2) was from Novus Biologicals H00005315-DOIP; antirabbit; at 1:500 dilution. After incubation with primary antibodies, the membranes were washed 3 times with TBS-T (1×-15′; 2×5′ each) and probed with the secondary antibody (SDHB & C antimouse; and PKM2 antirabbit; 1:10,000 dilution) for 1 hon the orbital tilting shaker at room temperature. […]

## COC1=C(OC)C(=O)C(C/C=C(\C)CC/C=C(\C)CC/C=C(\C)CC/C=C(\C)CC/C=C(\C)CC/C=C(\C)CC/C=C(\C)CC/C=C(\C)CC/C=C(\C)CCC=C(C)C)=C(C)C1=O [Q10, Coenzyme Q10]
[1]; 100 μM
  genes regulated in the Apoptosis Arrays: BAG1 and CASP9 and TNFRSF1A
[1]; 100 uM Q10, 16 hours
  BAG1 downregulation over control: approximately 6 fold
  CASP9 upregulation over control: approximately 61 fold
  TNFRSF1A downregulation over control: ~4 fold
[1]; 100 uM Q10, 48 hours
  BAG1 upregulation over control: ~1 fold
  CASP9 upregulation over control: approximately 55 fold
  TNFRSF1A upregulation over control: ~1 fold
IDH1; HASMC human aortic smooth muscle cells
  expression of IDH1: did not demonstrate significant changes
IDH1; HDFa primary human derived fibroblasts
  expression of IDH1: did not demonstrate significant changes
IDH1; HDFa, 24 h, 100 μM
  IDH1 Average Normalized Intensity: 600
IDH1; HepG2 cells
  expression of IDH1: increased expression
IDH1; MCF-7 cells
  expression of IDH1: increased expression
IDH1; PACA2, 5 g, 48 h, 100 μM
  IDH1 Normalized Intensity: 860
IDH1; PaCa-2 cells
  expression of IDH1: increased expression
IDH1; SCC25 cell lines
  expression of IDH1: moderate increase
IDH1; SKMEL28 cells
  expression of IDH1: increased expression
IDH1; nFIB fibroblasts
  expression of IDH1: did not demonstrate significant changes
[2]
  SDH protein levels in the mitochondrion: increase SDH protein levels
